Paper PMC11009625, “Antibiotic class with potent in vivo activity targeting lipopolysaccharide synthesis in Gram-negative bacteria” (Proceedings of the National Academy of Sciences of the …, 2024)
Like-named read-outs stand apart in the source and are kept apart here.

Tests used:
[1] = system: E. coli EC 106-09 (EN122); experiment: Neutropenic mouse peritonitis model, E. coli; assay type: in vivo, mice; conditions: single sc dose, modeled efficacy curves; for ED50: Escherichia coli
Experimental: (§1) PK and safety studies were done the Latvian Institute for Organic Synthesis (Riga, Latvia) and in vivo efficacy studies were done at Statens Serum Institut (Copenhagen, Denmark). Assays were done in accordance with the relevant permits at the respective sites (SI Appendix). For PK studies, plasma samples were taken from mice dosed subcutaneously and the samples were analyzed by UPLC/MS/MS. For in vivo efficacy studies, neutropenic mice were infected intraperitoneally with 10^6 bacteria and treated with subcutaneously with test compounds 1 h after infection. The mice were euthanized 4 h after treatment and serially diluted samples of blood and peritoneal fluid were plated onto blood agar plates. Complete experimental details available in SI Appendix.
(§2) Lantmännen) and water. The experimental procedures were performed in accordance with the guidelines of the European Community and local laws and policies (Directive 2010/63/EU), and all of the procedures were approved by Food and Veterinary Service, Riga, Latvia. […]
(§3) Bacterial strains and inoculum. E. coli EC 106-09 (EN122) and K. pneumoniae SSI #3010 (EN124) are clinical isolates from Denmark. Bacterial suspensions for inoculation of mice were prepared […]
(§4) at room temperature from fresh overnight cultures on 5% blood agar plates produced by SSI diagnostica (Copenhagen Denmark). The inoculum was prepared immediately before inoculation by suspending colonies in sterile 0.9% saline to an optical density of 0.13 at 540 nm, giving a density of 10^8 CFU/ml and further diluted in 0.9% saline to 2 x 10^6 CFU/ml before injecting into the mice. For each experiment, the size of the inoculum was determined by making ten-fold dilutions in 0.9% saline, of which 20 µl was plated on 5% blood agar plates with subsequent counting of colonies after incubation overnight at 35°C in ambient air.
(§5) Mice. Outbred female CD-1 mice 26-30 gram (Envigo, Netherlands) were housed at the animal facility at Statens Serum Institut. The temperature was 22 °C +/- 2 °C and the humidity was 55 +/- 10%. The mice were housed in individually ventilated type 3 macrolone cages with bedding from Tapvei. The air changes per hour were approximately 8-12 times (70-73 times per hours inside cages), and light/dark period was in 12-hours interval of 6 a.m.- 6 p.m./6 p.m – 6 a.m.
(§6) The mice had ad libitum access to domestic quality drinking water and food Teklad Global diet 2916C-Envigo) and occasionally peanuts and sunflower seeds (Køge Korn A/S). Further, the animals were offered Enviro-Dri nesting material and cardboard houses (Bio-serv).
(§7) Mouse peritonitis model. The mice were rendered neutropenic by injecting 0.5 mL cyclophosphamide solution, 200 mg/kg intraperitoneally at 4 days and 100 mg/kg at 1 day prior to inoculation. 1 h before inoculation, mice were treated orally with […] Nurofen (20 mg ibuprofen/mL corresponding to approximately 30 mg/kg) as a pain relief. Inoculation was performed by intraperitoneal injection of 0.5 ml of the bacterial suspension containing log 6
(§8) CFU. The mice were treated subcutaneously with 0.25 – 0.30 mL based on weight, in the neck region with a single dose of compound at 1 hour post inoculation. Mice were monitored for clinical signs of discomfort. 4 h after treatment the mice were anesthetized and blood was collected by heart puncture into EDTA tubes and thereafter mice were euthanized by cervical dislocation and peritoneal washes were performed by injecting 2 ml of sterile saline intraperitoneally, followed by gentle massage of the abdomen and opening the peritoneum to collect fluid. Full blood and peritoneal fluids were serially diluted (ten-fold dilutions) and 20 µl was plated on blood agar plates produced at the SSI diagniostica (Copenhagen, Denmark) with subsequent counting of colonies after incubation overnight at 35°C in ambient. All animal experiments were approved by the National Committee of Animal Ethics – Animal Experiment Inspectorate under the Danish Ministry of Justice.
(§9) Statistical analyses. […]

[2] = system: K. pneumoniae SSI #3010 (EN124); experiment: Neutropenic mouse peritonitis model, K. pneumoniae; assay type: in vivo, mice; conditions: single sc dose; for ED50: Klebsiella pneumoniae; for ED50 / 1-log effective dose, blood, K. pneumoniae / 2-log effective dose, blood, K. pneumoniae / 1-log effective dose, peritoneal fluid, K. pneumoniae / 2-log effective dose, peritoneal fluid, K. pneumoniae: modeled efficacy curves; for Efficacy against K. pneumoniae compared with ciprofloxacin (13 mg/kg): doses ≥50 mg/kg, mouse peritonitis
Experimental: as §1, §2, §3, §4, §5, §6, §7, §8, §9

[3] = system: K. pneumoniae ATCC 13883 (EN0006) and selected mutants; experiment: MIC of mutants from frequency of resistance experiments; assay type: cell-based; conditions: for MIC EN0006: ATCC 13883 parent; for MIC EN0006 / MIC CH10219: lpxH wild-type; for MIC CH10218: lpxH F128L; for MIC CH10218 / MIC CH10220 / MIC CH10221 / MIC CH10219: selected against EBL-3647; for MIC CH10206 / MIC CH10220: lpxH F141S; for MIC CH10206 / MIC CH10205 / MIC CH10207: selected against EBL-3599; for MIC CH10205 / MIC CH10207 / MIC CH10221: lpxH R80H; for MIC CH10219: ramR A40V
Experimental: Minimum inhibitory concentration (MIC) values were determined according to the Clinical Laboratory Standards Institute guidelines. Frequency of resistance was determined by plating ~5 × 10^8 bacterial cells on agar-solidified media plates containing test compound at concentrations corresponding to four times the measured solid-media MIC of the strains. Colonies were counted after 24 h, restreaked onto media containing the same concentration of compound, and the MIC remeasured against the assayed compound. Genomic DNA from isolated clones was sequenced by paired-end sequencing on an Illumina MiSeq device. Complete experimental details available in SI Appendix. […]
Minimum inhibitory concentration (MIC) determination. Broth microdilution and agar dilution MIC assays were conducted according to CLSI guidelines (M07-2012). Appropriate inoculation suspension density was assessed using a Sensititre Nephelometer with a Sensititre 0.5 […]
McFarland Standard. […]
Frequency of Resistance. Frequency of resistance was assessed by spread plating between […] cfu of a freshly-grown culture of the strain of interest on plates containing a concentration of compound corresponding to 4 times the MIC of the strain (as determined by agar-dilution MIC). Serial dilutions of the same cultures were plated on non-selective media to determine the number of cells plated. The frequency of resistance was determined by dividing the number of colonies obtained on the selective plates after 24 hours of growth by the calculated total population plated. Typically 4 independently grown cultures were used to initiate 4 separate experiments, and the total combined number of obtained colonies and plated populations were used for calculations. Isolated colonies from selection plates were re-streaked on an additional plate containing the same concentration of compound used in the original selection. Clones were saved at -80 °C for subsequent analysis.
Whole-genome sequencing and data analysis. Genomic DNA of selected clones was prepared using an Epicentre MasterPure Complete DNA Purification Kit. Whole-genome sequencing libraries were prepared using an Illumina Nextera XT Library Preparation Kit. The libraries were sequenced using an Illumina MiSeq device with a V3 600-cycle reagent kit. Whole-genome sequencing data was analyzed using CLC Genomics Workbench Version 11. To determine the genotype of MDR strains from the ENABLE strain collection, de novo assembled contigs were […]

[4] = blood, read-out: ED50, blood, E. coli
[5] = peritoneal fluid, read-out: ED50, peritoneal fluid, E. coli
[6] = blood, read-out: ED50, blood, K. pneumoniae
[7] = peritoneal fluid, read-out: ED50, peritoneal fluid, K. pneumoniae

## Cc1cc(C#N)nc(N2CCN(S(=O)(=O)c3ccc(NC(=O)c4cc(CNCCCN)ccc4N(C)S(C)(=O)=O)cc3)CC2)n1.Cl.Cl [EBL-3599]
[1]; [4]
  ED50: 20 mg/kg
[1]; [5]
  ED50: 29.6 mg/kg
[1]; blood
  1-log effective dose, blood, E. coli: 28.3 mg/kg
  2-log effective dose, blood, E. coli: 42.8 mg/kg
  3-log effective dose, blood, E. coli: 63.4 mg/kg
[1]; peritoneal fluid
  1-log effective dose, peritoneal fluid, E. coli: 45.9 mg/kg
  2-log effective dose, peritoneal fluid, E. coli: 70.0 mg/kg
[2]; [6]
  ED50: 20.2 mg/kg
[2]; [7]
  ED50: 19.8 mg/kg
[2]
  Efficacy against K. pneumoniae compared with ciprofloxacin (13 mg/kg): efficacy similar to ciprofloxacin
[2]; blood
  1-log effective dose, blood, K. pneumoniae: 20.2 mg/kg
  2-log effective dose, blood, K. pneumoniae: 28 mg/kg
[2]; peritoneal fluid
  1-log effective dose, peritoneal fluid, K. pneumoniae: 20.4 mg/kg
  2-log effective dose, peritoneal fluid, K. pneumoniae: 30.7 mg/kg
[3]
  MIC EN0006: 1 µg/mL
  MIC CH10218: 64 µg/mL
  MIC CH10206: > 64 µg/mL
  MIC CH10220: > 64 µg/mL
  MIC CH10205: 32 µg/mL
  MIC CH10207: 32 µg/mL
  MIC CH10221: > 64 µg/mL
  MIC CH10219: 8 µg/mL

## Cc1cc(C#N)nc(N2CCN(S(=O)(=O)c3ccc(NC(=O)c4cc(CN5CC(CN)C5)ccc4N(C)S(C)(=O)=O)cc3)CC2)n1 [EBL-3647]
[1]; [4]
  ED50: 12.3 mg/kg
[1]; [5]
  ED50: 13.6 mg/kg
[1]; blood
  1-log effective dose, blood, E. coli: 14.5 mg/kg
  2-log effective dose, blood, E. coli: 19.6 mg/kg
  3-log effective dose, blood, E. coli: 27.6 mg/kg
[1]; peritoneal fluid
  1-log effective dose, peritoneal fluid, E. coli: 20.8 mg/kg
  2-log effective dose, peritoneal fluid, E. coli: 31.2 mg/kg
[2]; [6]
  ED50: 21 mg/kg
[2]; [7]
  ED50: 21 mg/kg
[2]
  Efficacy against K. pneumoniae compared with ciprofloxacin (13 mg/kg): efficacy similar to ciprofloxacin
[2]; blood
  1-log effective dose, blood, K. pneumoniae: 21 mg/kg
  2-log effective dose, blood, K. pneumoniae: 27 mg/kg
[2]; peritoneal fluid
  1-log effective dose, peritoneal fluid, K. pneumoniae: 22.8 mg/kg
  2-log effective dose, peritoneal fluid, K. pneumoniae: 37.3 mg/kg
[3]
  MIC EN0006: 1 µg/mL
  MIC CH10218: 32 µg/mL
  MIC CH10206: > 64 µg/mL
  MIC CH10220: > 64 µg/mL
  MIC CH10205: 32 µg/mL
  MIC CH10207: 32 µg/mL
  MIC CH10221: > 64 µg/mL
  MIC CH10219: 8 µg/mL
